Assay results taken from patent publication US10471035B2, “Compositions and methods for using esters of meroterpenes and of other resveratrol analogues” (Sunny BioDiscovery, priority 2014, dated 2019).
Values after ≈ are worked out from the molar mass of the structure shown.

Key:
adult HEK = assay: Adult HEK proliferation; assay type: cell-based, human; conditions: 2.5 μg/ml
[1] = DPPH assay (free radical scavenging); assay type: biochemical; conditions: 520 nm
From the text: The objective of this experiment was to determine the antioxidant capacity of SBD.SE, using DPPH assay methodology. DPPH (2,2-diphenyl-1-picrylhydrazyl) is a stable free radical. The principle of the DPPH assay uses the reduction of the DPPH radical (purple) to diphenylpicrylhydrazine (yellow) as an indication of free radical scavenging capacity of a given test material (Schenk, G. H., Swieczkowski, N. K., “Colorimetric determination of pyrogallol and 2,6-dimethoxyphenol with diphenylpicrylhydrazyl,” Talanta, 1971, 18:230-4). Following the incubation of a test agent with DPPH solution, a reduction in absorbance at 520 nm compared to control is indicative of DPPH-scavenging. The degree of DPPH scavenging activity is expressed as % water control.

EpiOcular™ tissue = assay: EpiOcular Eye Irritation Test (OCL-200-EIT); assay type: cell-based, human
Method: Also, the effect of SBD.SE on the epiocular system was investigated. Epiocular system consists of normal, human-derived epidermal keratinocytes, which have been cultured to form a stratified, squamous epithelium similar to that found in the cornea.
The effect of SBD.SE was assayed on the EpiOcular™ tissue, using the MatTek (Ashland, Mass.) EpiOcular™ Eye Irritation Test (OCL-200-EIT) protocol.
Based on the “depth of injury” model, the Epiocular EIT is intended to differentiate those materials that are non-irritants (would not require a warning label in the European chemical classification systems) from those that would require labeling as either GHS1 or 2. Consequentially, this test allows to distinguish those materials that would induce no damage or damage limited into the corneal epithelium from those that would damage/destroy the epithelium and continue damage into the stroma.
This protocol utilizes the MTT-based cytotoxicity readout as the experimental endpoint, and thus effectively measures the cytotoxicity of test materials. Biological duplicates are used for all calculations. SBD.SE was tested at 10% (100 mg/ml) in dimethyl isosorbide (DMI). The negative control was type I sterile water and the positive control was neat methyl acetate. The pre-incubation time I was 60 min., preincubation time II—overnight, treatment time—30 min., post-soak is 120 min, incubation time with MTT test was 3 h and the extraction was overnight. The extracted formazan was quantified with Molecular Devices microplate spectrophotometer MAX190 at 570 nm.
Tissue irritation is a common side effect of retinoids. It is mediated, at least in part, by retinoid interaction with retinoic acid receptors (RARs; Thacher S M, Vasudevan J, Chandraratna R A. Therapeutic applications for ligands of retinoid receptors. Curr Pharm Des. 2000 January; 6(1):25-58; Kambayashi H, Odake Y, Takada K, Funasaka Y, Ichihashi M, Kato S. N-retinoyl-D-glucosamine, a new retinoic acid agonist, mediates topical retinoid efficacy with no irritation on photoaged skin. Br J Dermatol. 2005 December; 153 Suppl 2:30-6).

[2] = tested on: mouse melanoma cells (B16F10); assay: B16F10 melanoma growth and melanin; assay type: cell-based
From the text: Instead, cells cultured in the presence of SBD.SE grew slower and if allowed to reach monolayer, they become growth-arrested due to contact inhibition. […] Other retinoids, such as bexarotene, are known to have antineoplastic activity against cancers such as cutaneous T cell lymphoma.
The mechanism of action for this effect may be multifactorial and involve the inhibition of tyroinase and/or melanin secretion by melanocytes.

P. acnes = assay: MIC against planktonic P. acnes; assay type: cell-based, Propionibacterium acnes; conditions: Cutibacterium acnes; exponentially-growing planktonic bacteria, oxygen-free atmosphere; read-out: MIC (minimal inhibitory concentration)
Method: Serial dilutions of SBD.SE and SBD.FA were incubated with exponentially-growing planktonic P. acnes bacteria in oxygen-free atmosphere.
The MIC (minimal inhibitory concentration) for SBD.SE was determined to be about 30 μg/ml and for SBD.FA—about 60 μg/ml.

cytokine-treated HEK = assay: Morphology of cytokine-treated HEK; assay type: cell-based, human; conditions: 10 μg/ml; IL17A, IL22 and TNF-alpha
From the text: This is in agreement with the Example 3, showing that SBD.SE decreases cellular response to cytokine stimulus (Table 1).

C=C[C@@](C)(/C=C/c1ccc(OC(=O)c2ccccc2O)cc1)CCC=C(C)C [SBD.SE, Salicylic acid ester of bakuchiol]
inhibition of adult HEK proliferation (adult HEK): not inhibited | DPPH color (% Control) ([1]; 0.5 ug/ml): 86 % Control | DPPH color (% Control) ([1]; 2 ug/ml): 89 % Control | DPPH color (% Control) ([1]; 10 ug/ml): 59 % Control | DPPH color (% Control) ([1]; 16 ug/ml): 28 % Control | DPPH color (% Control) ([1]; 40 ug/ml): 6 % Control | irritation in reconstituted squamous epithelium model (EpiOcular™ tissue): no statistically significant irritation | classification in EpiOcular EIT (EpiOcular™ tissue; 10% (100 mg/ml) in DMI): non-irritant and non-cytotoxic | viability (% of water control) (EpiOcular™ tissue; SBD.SE 10% (100 mg/ml) in DMI, methyl acetate neat, 30 min treatment, MTT): over 60% | growth of B16F10 cells ([2]; 1 μg/ml to 10 μg/ml): inhibited the growth | inhibition at 2.5 µg/mL ([2]; Mus musculus, B16-F10, 2.5 μg/ml, read-out: inhibition of B16F10 melanocyte proliferation): 44% | melanin in growth medium ([2]; versus darkened medium of water control): completely deprived of melanin | MIC (P. acnes): ~30 µg/mL (≈ 79.7 µM) | cytokine-induced morphologic changes (cytokine-treated HEK): prevents these changes
